# Results taken from patent US7939530B2, “Treatment of lymphoma using 10-propargyl-10-deazaaminopterin and gemcitabine” (Sloan-Kettering Institute for Cancer Research, priority 2004, dated 2011).
# Where “and” joins values, the source holds several entries; their conditions need not be identical. Identical values can stand only once.
# Legend:
# [1] = system: human SKI-DLCL-1 (de novo diffuse large B cell) non-Hodgkin's lymphoma xenografts; assay: Subcutaneous lymphoma xenograft treatment; format: in vivo; details: MTX 40 mg/kg
# Description: (§1) In order to study the effects of PDX on lymphoma growth in vivo, subcutaneous transplantation models in NOD/SCID mice were generated using three established human lymphoma cell line representative of aggressive transformed FL (RL) and de novo extranodal DLBCL (HT; SKI-DLCL-1) histologies. Six to eight week old non-obsese diabetic severe combined immunodeficient (NOD/SCID) mice (Jackson Laboratories, Bar Harbor, Me.) were sub-lethally irradiated with […] from a gamma source and inoculated with 10×10^6 lymphoma cells via a subcutaneous route. When tumor volumes approached 100 mm^3, mice were divided into three groups, averaging 3-8 mice per group. Mice were treated with normal saline or the maximum tolerated dose (MTD) of MTX (40 mg/kg) or PDX (60 mg/kg) via an intraperitoneal route twice weekly for two weeks (four total doses). […] (Sirotnak, et al., Cancer Chemother. Pharmacol. 12: 26-30 (1984); Sirotnak et al., Cancer Chemother. Pharmacol. 42: 313-318 (1998).
# (§2) Engraftment rates in this experiment ranged from 80 to 90%. Palpable tumors formed under the skin approximately 7-10 days after inoculation and were readily measurable with calipers. Mice with subcutaneous lymphoma growths survived an average of 40-50 days after inoculation.
# [2] = system: human RL (transformed follicular) non-Hodgkin's lymphoma xenografts; assay: Subcutaneous lymphoma xenograft treatment; format: in vivo; details: MTX 40 mg/kg
# Description: as §1, §2
# [3] = system: human HT (diffuse large B cell) non-Hodgkin's lymphoma xenografts; assay: Subcutaneous lymphoma xenograft treatment; format: in vivo
# Description: as §1, §2
# SKI-DLCL-1 cells = assay: Induction of apoptosis (YO-PRO-1/propidium iodide flow cytometry); format: cell-based, human; details: all drugs 1 nM, total exposure 72 hours, sequential: first drug 24 hours prior to second
# Method: Ara-C, PDX and Gem in combined and scheduled exposures. In each case, the total exposure time was 72 hours. In sequential treatments, the first drug was administered 24 hours prior to the second drug.
# To assess apoptosis occurring as a result of combination therapies, apoptosis was assessed using two well standardized techniques. In the first (YO-PRO), cell membrane permeability was determined by measuring fluorescence of treated and control cells. 2×10^7 SKI-DLBCL cells were treated with either MTX, Ara-C, Gem or PDX alone or combinations of drug given together or scheduled. All drugs were assayed at equimolar concentrations (i.e. 1 nM). The incubation conditions were modeled after the in vitro cytotoxicity experiments. Single agent drugs or combinations of all drugs studied without schedule considerations were incubated for 72 hours, while drugs that were studied in some schedule were introduced in a 24+48 incubation scheme (i.e. drug B added 24 hours following drug A, then incubated for an additional 48 hours for a total incubation time of 72 hours). Cells were then collected, washed twice and re-suspended at a concentration of 1×10^6/mL in DPBS. Membrane permeability was detected via the differential cellular permeability of the fluorescent dyes YO-PRO®-1 and propidium iodide by flow cytometry, as per the manufacturer's guidelines (Vybrant apoptosis kit #4, Molecular Probes, Eugene, Oreg.). In addition to monitoring apoptosis, cell cycle kinetic analyses were also performed on all treated cells based the propidium iodide binding. Apoptotic cells were noted to be permeable to the green fluorescent dye YO-PRO®-1 (em 530, FL-1), and impermeable to the red fluorescent dye propidium iodide (em 575, FL-3). Typically, […] cells allow the entrance of both dyes, whereas living cells are impermeable to both dyes.
# [4] = system: SKI-DLCL-1 (Diffuse large B Cell) cell line; assay: Growth inhibition in vitro (XTT or Alamar blue); format: cell-based, human
# Method: A PDX preparation prepared in accordance with Example 1 and an MTX preparation were tested for cytotoxicity against a panel of five human lymphoma cell lines. Experiments were performed as described previously. (Sirotnak et al., Cancer Chemother. […] Colorimetric dye (XTT or Alamar blue) was added for an addition period of time (XTT dye, 6 hours, Alamar blue, 24 hours). Each plate was then read on an automated plate reader at 590 nm. The percentage of inhibition was calculated as growth of cells exposed to drug divided by growth of controls (cells incubated with media only). […] Experiments were repeated as lest three times.
# [5] = cited from earlier work
# [6] = system: subcutaneous tumors of SKI; assay: Preliminary combination xenograft experiment; format: in vivo, irradiated NOD-SCID mice; details: 60 mg/kg; regrowth by day 44 after initial response
# Method: Given the experience that SKI-DLCL-1 is the most PDX resistant line in the panel, it was selected for these in vivo synergy experiments. […] All animals were treated with the maximum tolerated dose (MTD) of each drug, save the combination studies.
# [7] = system: RL (Transformed follicular) cell line; assay: Growth inhibition in vitro (XTT or Alamar blue); format: cell-based, human; details: 5 day continuous drug exposure
# Method: (§3) A PDX preparation prepared in accordance with Example 1 and an MTX preparation were tested for cytotoxicity against a panel of five human lymphoma cell lines. Experiments were performed as described previously. (Sirotnak et al., Cancer Chemother. Pharmacol. 12: 18-25 (1984). In brief, 2.5 to 5×10^3 cells were plated per well in 96-well flat bottom plates. Drug was added in a 0.9% NaCl solution (pH 7.0) over a range of concentrations, and cells were continuously exposed to drug for 5 days. Colorimetric dye (XTT or Alamar blue) was added for an addition period of time (XTT dye, 6 hours, Alamar blue, 24 hours). Each plate was then read on an automated plate reader at 590 nm. The percentage of inhibition was calculated as growth of cells exposed to drug divided by growth of controls (cells incubated with media only). IC50 values were determined as the drug concentrations at which cell growth was inhibited 50% as compared to controls. Experiments were repeated as lest three times. Experiments were also conducted with continuous drug exposures lasting for 3 and 4 days with results similar to the 5 day results.
# [8] = system: HT (Diffuse large B cell) cell line; assay: Growth inhibition in vitro (XTT or Alamar blue); format: cell-based, human; details: 5 day continuous drug exposure
# Method: as §3
# [9] = system: Hs445 (Hodgkin's disease) cell line; assay: Growth inhibition in vitro (XTT or Alamar blue); format: cell-based, human; details: 5 day continuous drug exposure
# Method: as §3
# [10] = system: Raji (Burkitt's) cell line; assay: Growth inhibition in vitro (XTT or Alamar blue); format: cell-based, human; details: 5 day continuous drug exposure
# Method: as §3
# [11] = PDX 60 mg/kg ip twice weekly for two weeks
# [12] = MTX 40 mg/kg, PDX 60 mg/kg ip twice weekly for two weeks
smiles,measurement,setting,value
"C#CCC(Cc1cnc2nc(N)nc(N)c2n1)c1ccc(C(=O)N[C@@H](CCC(=O)O)C(=O)O)cc1 (some centres unmarked) [PDX, 10-Propargyl-10-deazaminopterin]",Complete Regression (no/total),[1]; PDX 60 mg/kg,3 of 10 and 3/10
same,tumor regressions / complete remissions (% of mice),[1]; PDX 60 mg/kg,30%
same,Avg Tumor Diameter (mm ± SE),[1]; [11],3.5 ± 0.7 mm
same,Avg change in Tumor Volume (mm^3 ± SE),[1]; [11],−81 ± 16 mm^3
same,Weight Change (%),[1]; [11],−1.2%
same,Complete Regression (no/total),[2]; PDX 60 mg/kg,5 of 9 and 5/9
same,tumor regressions (% of mice),[2]; PDX 60 mg/kg,57%
same,Avg Tumor Diameter (mm ± SE),[2]; [11],2.7 ± 1.1 mm
same,Avg change in Tumor Volume (mm^3 ± SE),[2]; [11],−46 ± 34 mm^3
same,Weight Change (%),[2]; [11],−11.1%
same,Complete Regression (no/total),"[3]; MTX 40 mg/kg, PDX 60 mg/kg",8 of 9 and 8/9
same,complete tumor regression (% of mice),"[3]; MTX 40 mg/kg, PDX 60 mg/kg",89%
same,Avg change in Tumor Volume (mm^3 ± SE),[3]; [12],−95 ± 0.8 mm^3
same,Weight Change (%),[3]; [12],−8.9%
same,Avg Tumor Diameter (mm ± SE),"[3]; MTX 40 mg/kg, PDX 60 mg/kg, at the nadir of tumor regression",0.5 mm and 0.5 ± 0.3 mm
same,Tumor Regression (%),"[3]; PDX 60 mg/kg, average tumor regression",99%
same,% change in apoptosis,SKI-DLCL-1 cells,28.21%
same,IC50,"[4]; SKI-DLCL-1, 5 day continuous drug exposure",5.1 ± 0.1 nM
same,EC50 in SKI-DLCL-1 relative to other B-cell lymphoma cell lines,"[4]; roughly, fold greater",2 to 3 fold
same,maximum tolerated dose (MTD),"[5]; intraperitoneal, twice weekly for two weeks",60 mg/kg
same,toxic deaths at the MTD,[5]; nude mice,no toxic deaths
same,tumor volume as % of initial tumor volume,[6],739%
same,IC50,[7],23 ± 2 nM
same,IC50,[8],2 ± 0.4 nM
same,IC50,[9],1.6 ± 0.8 nM
same,IC50,[10],2 ± 0.3 nM
